Laboratory results: patent US20220009894A1, “1,2,3,4-TETRAHYDROQUINOXALINE DERIVATIVE, PREPARATION METHOD THEREFOR AND APPLICATION THEREOF” (Abbisko Therapeutics Co., Ltd., priority 2019, published 2022)

What was measured:
[1] = target: T1, RORγt (Homo sapiens, UniProt P51449); test: RORγt cellular reporter gene detection assay; format: cell-based; conditions: 24 hrs; for EC50: HEK 293 cells co-transfected with pFN26A-RORγt-LBD and pG14.35, in presence of antagonist Ursolic acid, top concentration 50 μM; for Cellular Reporter Assay Amax: upper activation limit, HEK 293 cells, in presence of antagonist Ursolic acid;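 on Cellular Reporter Assay Amax: Ursolic Acid added as 5 µL of 20 µM medium per well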
T1 construct: The plasmid of pFN26A-RORγt-LBD and pG14.35 (Promega, Cat. No. E1370) were co-transfected into HEK 293 cells; expressed in transfected cells; host or cells: HEK 293 cells (Cat. No. GNHu18)
T1 sequence (P51449 269-508 limits assumed): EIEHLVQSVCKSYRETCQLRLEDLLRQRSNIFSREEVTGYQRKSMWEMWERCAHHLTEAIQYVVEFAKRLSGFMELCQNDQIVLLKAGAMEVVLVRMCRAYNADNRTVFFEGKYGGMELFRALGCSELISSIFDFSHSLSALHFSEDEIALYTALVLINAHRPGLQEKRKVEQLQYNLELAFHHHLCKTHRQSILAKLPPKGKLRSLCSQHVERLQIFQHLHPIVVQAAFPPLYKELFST
Outline: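 HEK293 cells co-transfected with RORγt-LBD and luciferase reporter plasmids, treated with Ursolic acid antagonist plus compound in 4-fold dilutions from 50 μM for 24 h at 37° C. Firefly and Renilla luminescence read; EC50 and Amax from four-parameter fit.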

[2] = target: T2, RORγt-LBD (Homo sapiens, UniProt P51449); test: Time-resolved fluorescence resonance energy-transfer assay (TR-FRET), co-activator peptide recruitment; format: biochemical; set-up: TR-FRET Biochemical Amax: unit not given here; conditions: for EC50: His-RORγt-LBD 30 nM, SRC peptide 500 nM, agonistic activity, averages of one or more measurements, read-out: TR-FRET Biochemical EC50/; for TR-FRET Biochemical Amax: upper activation limit, His-RORγt-LBD, SRC peptide
T2 sequence (P51449 269-508 limits assumed): T1 sequence (P51449 269-508 limits assumed)
Outline: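 Eu-anti-His-labelled His-RORγt-LBD (30 nM final) recruits biotin-SRC co-activator peptide (500 nM final), detected via APC-streptavidin (5 nM) and Eu-anti-His (0.25 nM). Buffer was Tris/KCl/EDTA at pH 7.0 with 0.01% Triton X-100 and 1 mM DTT. Compounds were tested at 7 points in 5-fold dilutions. Plates were incubated overnight at 4 °C then 1 h at RT, and agonism was read as the 665/615 nm ratio.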

Row | Compound | EC50 [1] [nM] | Cellular Reporter Assay Amax [1] | EC50 [2] [nM] | TR-FRET Biochemical Amax [2]
1 | C[C@@]1(OCCC(=O)O)CCN2c3ccc(-c4cc(F)cc(OC(F)F)c4)cc3N(S(=O)(=O)c3cccc(C(F)(F)F)c3)C[C@@H]2C1 [Example 113, 3-(((6aS,8R)-3-(3-(difluoromethoxy)-5-fluorophenyl)-8-methy 1-5-((3-(trifluoromethyl)phenyl)sulfonyl)-6,6a,7,8,9,10-hexahydro-5H-pyrido[1,2-a]quinoxalin-8-yl)oxy)propanoic acid] | 149 | 2.8 | 21.9 | 0.71
2 | O=C(O)CCO[C@@H]1CCN2c3ccc(-c4cc(F)cc(OC(F)F)c4)cc3N(S(=O)(=O)c3cccc(C(F)(F)F)c3)C[C@@H]2C1 [Example 115, 3-(((6aS,8R)-3-(3-(difluorometh-oxy)-5-fluorophenyl)-5-((3-(tri-fluoromethyl)phenyl)sulfonyl)-6,6a,7,8,9,10-hexahydro-5H-pyrido[1,2-a]quinoxalin-8-yl)oxy)propanoic acid] | 178 | 5.4 | 67.9 | 0.71
3 | O=C(O)[C@H]1CCN2c3ccc(-c4cc(F)cc(OC(F)F)c4)cc3N(S(=O)(=O)c3cccc(C(F)(F)F)c3)C[C@@H]2C1 [Example 116, (6aS,8S)-3-(3-(difluoromethoxy)-5-fluorophenyl)-5-((3-(trifluoromethyl)phenyl)sulfonyl)-6,6a,7,8,9,10-hexahydro-5H-pyrido[1,2-a]quinoxaline-8-carboxylic acid] | 301 | 5.4 | 43.4 | 0.65
4 | O=C(O)[C@@H]1CCN2c3ccc(-c4cc(F)cc(OC(F)F)c4)cc3N(S(=O)(=O)c3cccc(C(F)(F)F)c3)C[C@@H]2C1 [Example 117, (6aS,8R)-3-(3-(difluoromethoxy)-5-fluorophenyl)-5-((3-(trifluoro-methyl)phenyl)sulfonyl)-6,6a,7,8,9,10-hexahydro-5H-pyri-do[1,2-a]quinoxaline-8-car-boxylic acid] | 627 |  | 148 | 
5 | CN1c2ccc(C3=CC(C)(C)OC(C)(C)C3)cc2N(S(=O)(=O)c2cccc(C(F)(F)F)c2)C[C@@H]1CCC(=O)O [Example 118, (S)-3-(1-methyl-6-(2,2,6,6-tetramethyl-3,6-dihydro-2H-pyran-4-yl)-4-((3-(trifluoromethyl)phenyl)sulfonyl)-1,2,3,4-tetrahydroquinoxalin-2-yl)propanoic acid] | 223 | 1.0 | 204 | 0.36
6 | CN1c2ccc(C3CC(C)(C)OC(C)(C)C3)cc2N(S(=O)(=O)c2cccc(C(F)(F)F)c2)C[C@@H]1CCC(=O)O [Example 119, (S)-3-(1-methyl-6-(2,2,6,6-tetramethyltetrahydro-2H-pyran-4-yl)-4-((3-(trifluoromethyl)phenyl)sulfonyl)-1,2,3,4-tetrahydroquinoxalin-2-yl)propanoic acid] | 295 | 1.1 | 31.5 | 0.41
7 | C[C@@]1(OCCC(N)=O)CCN2c3ccc(-c4cc(F)cc(OC(F)F)c4)cc3N(S(=O)(=O)c3cccc(C(F)(F)F)c3)C[C@@H]2C1 [Example 122, 3-(((6aS,8R)-3-(3-(difluoromethoxy)-5-fluorophenyl)-8-methyl-5-((3-(trifluoromethyl)phenyl)sulfo-nyl)-6,6a,7,8,9,10-hexahydro-5H-pyrido[1,2-a]quinoxalin-8-yl)oxy) propanamide] | 447 | 1.1 | 98.4 | 0.68

Results, then the compound that gave them:

Row | EC50 [1] [nM] | Cellular Reporter Assay Amax [1] | EC50 [2] [nM] | TR-FRET Biochemical Amax [2] | Compound
8 | 969 | 5.3 | 113 | 0.51 | C[C@]1(OCCC(=O)O)CCN2c3ccc(-c4cc(F)cc(OC(F)F)c4)cc3N(S(=O)(=O)c3cccc(C(F)(F)F)c3)C[C@@H]2C1 [Example 114, 3-(((6aS,8S)-3-(3-(difluoro-methoxy)-5-fluorophenyl)-8-methyl-5-((3-(trifluorometh-yl)phenyl)sulfonyl)-6,6a,7,8,9,10-hexahydro-5H-py-rido[1,2-a]quinoxalin-8-yl)oxy)propanoic acid]
9 | 157 | 5.7 | 64.9 | 1.07 | COC(=O)CC[C@H]1CN(S(=O)(=O)c2cccc(C(F)(F)F)c2)c2cc(/C=C(\C)c3c(F)cccc3Cl)ccc2N1C [Example 120, methyl (S,E)-3-(6-(2-(2-chloro-6-fluorophenyl)prop-1-en-1-yl)-1-methyl-4-((3-(trifluoromethyl)phenyl)sulfonyl)-1,2,3,4-tetrahydroquinoxalin-2-yl)propanoate]
10 | 378 | 2.4 | 12.1 | 0.98 | C/C(=C\c1ccc2c(c1)N(S(=O)(=O)c1cccc(C(F)(F)F)c1)C[C@@H]1C[C@](C)(OCCC(=O)O)CCN21)c1c(F)cccc1Cl [Example 121]
